Structures can show the parent of a compound that is named as a salt.
Tests used:
CHO-K1 [1] = assay: benchmark concentration for 30% increase in micronucleus frequency (BMC30); higher = less potent clastogen
Method: (§1)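 Benchmark concentration modelling (PROAST, Hill/exponential model families) of the 19-concentration flow-cytometric micronucleus assay in CHO-K1 cells, with and without rat liver S9. Only non-cytotoxic and adequate (relative survival >=40%) concentrations were used. BMR was a 30% increase in %MN (BMC30) or a 60% increase in %hypodiploid (BMC60) over control.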

CHO-K1 [2] = assay: benchmark concentration for 60% increase in hypodiploid frequency (BMC60); higher = less potent aneugen
Method: as §1

[3] = S9 metabolic activation: with S9
[4] = S9 metabolic activation: without S9

| SMILES | benchmark concentration (CHO-K1 [1]; [3]) [µM] | benchmark concentration (CHO-K1 [1]; [4]) [µM] | benchmark concentration (CHO-K1 [2]; [4]) [µM] | benchmark concentration (CHO-K1 [2]; [3]) [µM] |
| --- | --- | --- | --- | --- |
| Cc1cc(O)ccc1Cl [4-Chloro-3-methylphenol] | 18 | 41 | 46 | – |
| O=C(OC[C@H]1O[C@@H](OC(=O)c2cc(O)c(O)c(OC(=O)c3cc(O)c(O)c(O)c3)c2)[C@H](OC(=O)c2cc(O)c(O)c(OC(=O)c3cc(O)c(O)c(O)c3)c2)[C@@H](OC(=O)c2cc(O)c(O)c(OC(=O)c3cc(O)c(O)c(O)c3)c2)[C@@H]1OC(=O)c1cc(O)c(O)c(OC(=O)c2cc(O)c(O)c(O)c2)c1)c1cc(O)c(O)c(OC(=O)c2cc(O)c(O)c(O)c2)c1 [Tannic acid] | 0.9 | – | 0.84 | 1.3 |
| ClC1=C(Cl)C2(Cl)C3C(Cl)C=CC3C1(Cl)C2(Cl)Cl (stereo not drawn) [Heptachlor] | 11 | 64 | 20 | 19 |
| CC(=O)N1CCN(c2ccc(OCC3COC(Cn4ccnc4)(c4ccc(Cl)cc4Cl)O3)cc2)CC1 (stereo not drawn) [Ketoconazole] | 54 | – | – | – |
| NS(=O)(=O)c1cc2c(cc1Cl)NCNS2(=O)=O [Hydrochlorothiazide] | 29 | – | 73 | – |
| Nc1ccc(Oc2ccc(N)cc2)cc1 [4,4'-Oxydianiline] | – | 60 | 31 | – |
| O=C(CCl)c1ccccc1 [2-Chloroacetophenone] | 60 | – | – | 62 |
| Nc1cccc2c(N)cccc12 [1,5-Naphthalenediamine] | 8.6 | – | 66 | – |
| CCCOC(=O)c1cc(O)c(O)c(O)c1 [Propyl gallate] | 24 | 17 | – | – |
| CCCCCCCCn1sccc1=O [Octhilinone] | – | < 4.5 | – | – |
| CC1(C)C(=O)N(Cl)C(=O)N1Cl [1,3-Dichloro-5,5-dimethylhydantoin] | – | 31 | 55 | – |
| O=c1n(CC2CO2)c(=O)n(CC2CO2)c(=O)n1CC1CO1 (stereo not drawn) [Triglycidyl isocyanurate] | < 4.5 | < 4.5 | 25 | 53 |
| Cc1ccc(O)c(C)c1 [2,4-Dimethylphenol] | – | 79 | – | – |
| O=S1(=O)CCCO1 [1,3-Propane sultone] | – | 110 | 80 | – |
| COc1ccccc1N [2-Anisidine] | – | 46 | 120 | – |
| Cc1ccc(C)c(O)c1 [2,5-Dimethylphenol] | – | 37 | 39 | – |
| O=C(c1ccccc1)c1ccccc1 [Benzophenone] | – | 59 | 28 | – |
| C/C=C/C=C/C(=O)O [Sorbic acid] | – | 29 | 37 | – |
| CCCCCCCC1CCC(=O)O1 (stereo not drawn) [5-Heptyldihydro-2(3H)-furanone] | – | 75 | 79 | – |
| COC(=O)c1ccccc1O [Methyl salicylate] | 58 | 15 | 67 | – |
| O=c1[nH]cc(F)c(=O)[nH]1 [5-Fluorouracil] | – | 110 | 99 | – |
| Cc1cccc2ccccc12 [1-Methylnaphthalene] | – | 57 | 110 | – |
| CCOP(=S)(OCC)Oc1nc(Cl)c(Cl)cc1Cl [Chlorpyrifos] | 29 | – | 69 | 42 |
| CN(C)c1ccc(C(=O)c2ccc(N(C)C)cc2)cc1 [Michlers ketone] | 27 | – | – | 22 |
| O=C(O)c1cc(/N=N/c2ccc(S(=O)(=O)Nc3ccccn3)cc2)ccc1O [Sulfasalazine] | – | 65 | – | – |
| Nc1ccc2ccccc2c1 [2-Naphthylamine] | – | 51 | 47 | 43 |

| SMILES | benchmark concentration (CHO-K1 [1]; [3]) [µM] | benchmark concentration (CHO-K1 [1]; [4]) [µM] | benchmark concentration (CHO-K1 [2]; [4]) [µM] | benchmark concentration (CHO-K1 [2]; [3]) [µM] |
| --- | --- | --- | --- | --- |
| Nc1ccc(-c2ccc(N)cc2)cc1 [Benzidine] | – | 18 | 18 | – |
| c1ccc2c(c1)-c1cccc3c1c-2cc1ccccc13 [Benzo(b)fluoranthene] | – | 130 | 93 | – |
| O=CCCCC=O [Glutaraldehyde] | – | 28 | – | – |
| CCOC(N)=O [Urethane] | 32 | – | – | – |
| CCCOC(=O)c1ccc(O)cc1 [Propylparaben] | 37 | – | – | – |
| O=C(c1ccc(OCCN2CCCCC2)cc1)c1c(-c2ccc(O)cc2)sc2cc(O)ccc12 [Raloxifene hydrochloride] | 70 | 28 | – | – |
| CCCCCCCCCCCCCCCS(=O)(=O)Oc1ccccc1 [C10-21 sulfonic acids phenyl esters] | – | 130 | – | – |
| Oc1cccc2cccnc12 [8-Hydroxyquinoline] | 16 | 26 | – | – |
| CCOCN(C(=O)CCl)c1c(C)cccc1CC [Acetochlor] | 79 | 39 | – | – |
| ClC1=C(Cl)C(Cl)(Cl)C(Cl)=C1Cl [Hexachlorocyclopentadiene] | 23 | < 4.5 | – | – |
| O=[N+]([O-])c1ccc(Oc2ccc(Cl)cc2Cl)cc1 [Nitrofen] | – | 77 | – | – |
| O=P1(N(CCCl)CCCl)NCCCO1 (stereo not drawn) [Cyclophosphamide monohydrate] | – | 91 | – | – |
| O=c1c(-c2ccc(O)cc2)coc2cc(O)cc(O)c12 [Genistein] | – | 10 | – | – |
| O=C1C2(Cl)C3(Cl)C4(Cl)C(Cl)(Cl)C5(Cl)C3(Cl)C1(Cl)C5(Cl)C24Cl (stereo not drawn) [Kepone] | 53 | 30 | – | – |
| CCC(C)c1cc([N+](=O)[O-])cc([N+](=O)[O-])c1O (stereo not drawn) [Dinoseb] | – | 49 | – | – |
| CC(N)=O [Acetamide] | – | 5.8 | – | – |
| OCCOCCO [Diethylene glycol] | – | 79 | – | – |
| Oc1cc(Cl)ccc1Oc1ccc(Cl)cc1Cl [Triclosan] | 40 | – | – | – |
| CS(=O)(=O)OCCCCOS(C)(=O)=O [Busulfan] | – | 19 | – | – |
| O=c1[nH]cnc2c1ncn2[C@H]1CC[C@@H](CO)O1 [2',3'-Dideoxyinosine] | – | 84 | – | – |
| O=S(=O)(O)C(F)(F)C(F)(F)C(F)(F)C(F)(F)C(F)(F)C(F)(F)C(F)(F)C(F)(F)F [PFOS] | – | 18 | – | – |
| CCCCC(CC)COC(=O)CCCCC(=O)OCC(CC)CCCC (stereo not drawn) [Di(2-ethylhexyl) adipate] | – | 76 | – | – |
| OCC1CO1 (stereo not drawn) [Glycidol] | – | 99 | – | – |
| CCCN(CCC)N=O [N-Nitrosodipropylamine] | 20 | – | – | – |
| O=Cc1ccco1 [Furfural] | – | 130 | – | – |
| CCOC(=O)C(O)(c1ccc(Cl)cc1)c1ccc(Cl)cc1 [Chlorobenzilate] | – | 47 | – | – |

| SMILES | benchmark concentration (CHO-K1 [1]; [3]) [µM] | benchmark concentration (CHO-K1 [1]; [4]) [µM] | benchmark concentration (CHO-K1 [2]; [4]) [µM] | benchmark concentration (CHO-K1 [2]; [3]) [µM] |
| --- | --- | --- | --- | --- |
| CCOc1ccc2c(c1)C(C)=CC(C)(C)N2 [Ethoxyquin] | 86 | 55 | – | – |
| CN(C)CCCN1c2ccccc2Sc2ccc(Cl)cc21 [Chlorpromazine hydrochloride] | – | 23 | – | – |
| O=C1OC(c2ccc(O)cc2)(c2ccc(O)cc2)c2ccccc21 [Phenolphthalein] | – | 22 | – | – |
| CCOC(=O)c1ccc(O)cc1 [Ethylparaben] | – | 70 | – | – |
| c1ccc2c(c1)oc1ccccc12 [Dibenzofuran] | 33 | – | – | – |
| Nc1ccc(Cl)cc1N [4-Chloro-1,2-diaminobenzene] | – | 41 | – | – |
| CCCCCCc1ccc(O)cc1O [4-Hexylresorcinol] | – | – | < 4.5 | – |
| O=c1ccc2ccccc2o1 [Coumarin] | – | – | 9.7 | – |
| NC(=O)N1c2ccccc2C=Cc2ccccc21 [Carbamazepine] | – | – | 110 | – |
| O=P(OCCCl)(OCCCl)OCCCl [Tris(2-chloroethyl) phosphate] | – | – | 150 | – |
| COc1ccc([N+](=O)[O-])cc1N [2-Methoxy-5-nitroaniline] | – | – | 90 | – |
| O=c1[nH]sc2ccccc12 [1,2-Benzisothiazolin-3-one] | 32 | – | – | – |
| CC/C(=C(/CC)c1ccc(O)cc1)c1ccc(O)cc1 [Diethylstilbestrol] | – | – | 4.8 | – |
| COCCOCCO [Diethylene glycol monomethyl ether] | – | – | 90 | – |
| OCCC(F)(F)C(F)(F)C(F)(F)C(F)(F)C(F)(F)C(F)(F)C(F)(F)C(F)(F)F [1,1,2,2-Tetrahydroperfluoro-1-decanol] | – | – | 95 | – |
| COC(=O)c1ccccc1N [Methyl 2-aminobenzoate] | – | – | 77 | – |
| C[C@@H]1C[C@@H]([C@H](O)CC2CC(=O)NC(=O)C2)C(=O)[C@@H](C)C1 [Cycloheximide] | < 4.5 | – | – | – |
| Cc1ccc(C(C)C)c(O)c1 [Thymol] | – | – | 100 | – |
| O=c1c(O)c(-c2ccc(O)c(O)c2)oc2cc(O)cc(O)c12 [Quercetin] | – | – | 110 | – |
| C=CC(N)=O [Acrylamide] | 47 | – | – | – |
| CC(C)=CCC/C(C)=C/C=O [3,7-Dimethyl-2,6-octadienal] | – | – | 28 | – |
| Nc1ccc(S(=O)(=O)c2ccc(N)cc2)cc1 [Dapsone] | – | – | 39 | – |
| COCCOCCOC [Bis(2-methoxyethyl) ether] | 72 | – | – | – |
| CC(C)(OOC(C)(C)c1ccccc1)c1ccccc1 [Dicumyl peroxide] | 88 | 5.5 | – | – |
| COc1cc(-c2ccc(N)c(OC)c2)ccc1N [3,3'-Dimethoxybenzidine dihydrochloride] | – | – | 7.6 | – |
| c1ccc2occc2c1 [2,3-Benzofuran] | – | – | 61 | – |

From the supplement of paper PMC9151546
